For one data set, the system named is A. baumannii ATCC19606. The data set can be described thus: microbe, parasite or virus in culture. As to conditions: for MIC A. baumannii, 12.5% MHB / MIC A. baumannii, Full MHB: A. baumannii ATCC19606, 16–20 h at 37 °C; for MIC A. baumannii, 12.5% MHB: 12.5% Müller–Hinton medium; for MIC A. baumannii, Full MHB: full Müller–Hinton medium; for MIC A. baumannii ATCC19606: supplement CSV. The source says: (§1) We tested antibacterial effects against the Gram-negative bacteria Escherichia coli, Klebsiella pneumoniae, Pseudomonas aeruginosa, and Acinetobacter baumannii and the Gram-positive methicillin-resistant Staphylococcus aureus (MRSA).
(§2) Bacterial growth assay (Figure S1), transmission electron microscopy (Figure S6), serum stability assay (Figure S7), circular dichroism spectral recording (Figures S8 and S9), antimicrobial and hemolysis activity assays (MIC and MHC), and vesicle leakage assay were carried out as described in earlier publications.[43],[44]
(§3) Minimum inhibitory concentration assay
(§4) Antimicrobial activity was assayed against P. aeruginosa PAO1, K. pneumoniae NCTC418, E. coli W3110, A. baumannii ATCC 19606, methicillin-resistant S. aureus COL (MRSA), and for selected peptides on P. aeruginosa PA14 and the polymyxin-B-resistant derivative PA14 2P4, as well as the clinical isolates ZEM-1A and ZEM9A, K. pneumoniae OXA-48, S. aureus Newman, Enterobacter cloacae and Burkholderia cenocepacia. The minimal inhibitory concentration (MIC) was determined by using broth microdilution method. A colo ny of bacteria was picked and grown in Luria-Bertani (LB) medium overnight at 37°C. For E. coli BW25113 sbmA::kan the medium was supplemented with 25 mg/L of kanamycin. The next day, the culture was then regrown in LB medium to log phase (OD600 = 0.6 to 0.8), which lasted approximately 4 h, and diluted to an OD600 of 0.022 in the desired medium. Stock solutions of 1 mg/mL of the samples were prepared in sterilized milliQ water and diluted to the beginning concentration of 64 μg/mL in 300 μL Mueller Hinton (MH)-medium. The diluted samples were added to first well of 96-well microtiter plate (TPP, untreated, Faust Laborbedarf, AG, Schaffhausen) and diluted serially by ½. Finally, 4 μL of the bacterial suspension was inoculated into the sample solutions (150 μL/well) with a final inoculation of about 5∙10^5 CFU/mL. The plates were then incubated at 37°C for 15-18h. For each assay, sterility (broth only) and growth control (broth with bacterial inoculum, without antibiotics) were checked with two columns in the plate. The next day, 15 μL of 3-(4,5-dimethylthiazol-2-yl)-2,5-diphenyltetrazolium bromide (MTT) was added to each well of the plate, such a way that MIC was defined as the lowest concentration of the peptide that inhibited visible growth of the tested

The subject of another data set is E. coli W3110. The data set can be described thus: microbe, parasite or virus in culture. As to conditions: for MIC E. coli, 12.5% MHB / MIC E. coli, Full MHB: E. coli W3110, 16–20 h at 37 °C, broth microdilution; for MIC E. coli, 12.5% MHB: 12.5% Müller–Hinton medium; for MIC E. coli, Full MHB: full Müller–Hinton medium; for MIC E. coli W3110: supplement CSV.
Text: as §1, §2, §3, §4
(In general: In broth dilution the organism is exposed to a series of concentrations in liquid medium.)

The subject of a further data set is K. pneumoniae NCTC 418. The data set can be described thus: microbe, parasite or virus in culture. As to conditions: for MIC K. pneumoniae, 12.5% MHB / MIC K. pneumoniae, Full MHB: K. pneumoniae NCTC 418, 16–20 h at 37 °C; for MIC K. pneumoniae, 12.5% MHB: 12.5% Müller–Hinton medium; for MIC K. pneumoniae, Full MHB: full Müller–Hinton medium; for MIC K. pneumoniae NCTC418: supplement CSV.
Text: as §1, §2, §3, §4

For another data set, the system named is P. aeruginosa PAO1. The data set can be described thus: microbe, parasite or virus in culture. As to conditions: for MIC P. aeruginosa, 12.5% MHB / MIC P. aeruginosa, Full MHB: P. aeruginosa PAO1, 16–20 h at 37 °C; for MIC P. aeruginosa, 12.5% MHB: 12.5% Müller–Hinton medium; for MIC P. aeruginosa, Full MHB: full Müller–Hinton medium; for MIC P. aeruginosa PAO1: supplement CSV.
Text: as §1, §2, §3, §4

The next data set has as its system S. aureus COL (MRSA). As to the kind of experiment: microbe, parasite or virus in culture. As to conditions: for MIC S. aureus, 12.5% MHB / MIC S. aureus, Full MHB: S. aureus COL (MRSA), 16–20 h at 37 °C; for MIC S. aureus, 12.5% MHB: 12.5% Müller–Hinton medium; for MIC S. aureus, Full MHB: full Müller–Hinton medium; for MIC S. aureus COL (MRSA): supplement CSV.
Text: as §1, §2, §3, §4

Another data set concerns human red blood cells. The data set can be described thus: Hemolysis assay, minimum hemolytic concentration. As to conditions: for Haemolysis on hRBC, MHC: 2.5% human red blood cells (final) in 10 mM phosphate, 150 mM NaCl, pH 7.4, 25 °C, 4 h, visual inspection; for MHC human red blood cells: supplement CSV.

Molecules are shown by their SMILES. Converted amounts (≈) assume the structure as drawn. Non-standard residues stand in square brackets, D forms with d. Residues, ends and D or L forms follow the SMILES beside them.

For the compound `CC[C@H](C)[C@H](NC(=O)[C@H](CCCNC(=N)N)NC(=O)[C@H](CCCNC(=N)N)NC(=O)[C@@H]1CCCN1C(=O)[C@@H]1CCCN1C(=O)[C@H](CCCNC(=N)N)NC(=O)[C@@H]1CCCN1C(=O)[C@H](CCCNC(=N)N)NC(=O)[C@@H]1CCCN1C(=O)[C@H](CC(C)C)NC(=O)[C@H](Cc1ccc(O)cc1)NC(=O)[C@@H]1CCCN1C(=O)[C@H]1CCCN1C(=O)[C@H](CCCCN)NC(=O)[C@H](CC(=O)O)NC(=O)[C@@H](N)C(C)C)C(=O)N[C@@H](Cc1ccc(O)cc1)C(=O)N[C@@H](CC(N)=O)C(=O)N[C@@H](CCCNC(=N)N)C(N)=O` [DP4-Onc] (H-VDK[dP]PYLPRPRPPRRIYNR-NH2), in the data set with A. baumannii ATCC19606, the “MIC A. baumannii, 12.5% MHB” value came to 8 µg/mL (≈ 3.35 µM) and the “MIC A. baumannii, Full MHB” value worked out at 64 µg/mL (≈ 26.8 µM). In addition, in the data set on A. baumannii ATCC19606 (12.5% MH pH 7.4), the “MIC A. baumannii ATCC19606” value is 8 µg/mL (≈ 3.35 µM). The “MIC A. baumannii ATCC19606” value with A. baumannii ATCC19606 (full MH pH 7.4) stood at 64 µg/mL (≈ 26.8 µM). In addition, in the data set with E. coli W3110, the “MIC E. coli, 12.5% MHB” value was found to be 4 µg/mL (≈ 1.67 µM) and the “MIC E. coli, Full MHB” value was determined as 16 µg/mL (≈ 6.69 µM). Also, in the data set on E. coli W3110 (12.5% MH pH 7.4), the “MIC E. coli W3110” value is 4 µg/mL (≈ 1.67 µM). Moreover, the “MIC E. coli W3110” value with E. coli W3110 (full MH pH 7.4) is 16 µg/mL (≈ 6.69 µM). Moreover, in the data set on K. pneumoniae NCTC 418, the “MIC K. pneumoniae, 12.5% MHB” value stood at 4 µg/mL (≈ 1.67 µM) and the “MIC K. pneumoniae, Full MHB” value was 32 µg/mL (≈ 13.4 µM). The “MIC K. pneumoniae NCTC418” value with K. pneumoniae NCTC 418 (12.5% MH pH 7.4) worked out at 4 µg/mL (≈ 1.67 µM). Moreover, the “MIC K. pneumoniae NCTC418” value against K. pneumoniae NCTC 418 (full MH pH 7.4) is 32 µg/mL (≈ 13.4 µM). In the data set with P. aeruginosa PAO1, the “MIC P. aeruginosa, 12.5% MHB” value was more than 16 µg/mL and the “MIC P. aeruginosa, Full MHB” value is more than 64 µg/mL. Also, in the data set on P. aeruginosa PAO1 (12.5% MH pH 7.4), the “MIC P. aeruginosa PAO1” value was more than 16 µg/mL. The “MIC P. aeruginosa PAO1” value against P. aeruginosa PAO1 (full MH pH 7.4) is more than 64 µg/mL. In addition, in the data set with S. aureus COL (MRSA), the “MIC S. aureus, 12.5% MHB” value is >64 / 64 μg/mL and the “MIC S. aureus, Full MHB” value was >64 / 64 μg/mL. Moreover, the “MIC S. aureus COL (MRSA)” value with S. aureus COL (MRSA) (12.5% MH pH 7.4) came to 64 µg/mL (≈ 26.8 µM). Further, the “MIC S. aureus COL (MRSA)” value in the data set on S. aureus COL (MRSA) (full MH pH 7.4) was more than 64 µg/mL. Further, in the data set with human red blood cells, the “Haemolysis on hRBC, MHC” value is more than 1000 µg/mL and the “MHC human red blood cells” value was more than 1000 µg/mL.
For `CC[C@H](C)[C@H](NC(=O)[C@H](CCCNC(=N)N)NC(=O)[C@H](CCCNC(=N)N)NC(=O)[C@@H]1CCCN1C(=O)[C@@H]1CCCN1C(=O)[C@H](CCCNC(=N)N)NC(=O)[C@@H]1CCCN1C(=O)[C@H](CCCNC(=N)N)NC(=O)[C@@H]1CCCN1C(=O)[C@H](CC(C)C)NC(=O)[C@H](Cc1ccc(O)cc1)NC(=O)[C@H]1CCCN1C(=O)[C@@H]1CCCN1C(=O)[C@H](CCCCN)NC(=O)[C@H](CC(=O)O)NC(=O)[C@@H](N)C(C)C)C(=O)N[C@@H](Cc1ccc(O)cc1)C(=O)N[C@@H](CC(N)=O)C(=O)N[C@@H](CCCNC(=N)N)C(N)=O` [DP5-Onc] (H-VDKP[dP]YLPRPRPPRRIYNR-NH2), in the data set with A. baumannii ATCC19606, the “MIC A. baumannii, 12.5% MHB” value came to 16 µg/mL (≈ 6.69 µM) and the “MIC A. baumannii, Full MHB” value is more than 64 µg/mL. For the same compound, the “MIC A. baumannii ATCC19606” value in the data set on A. baumannii ATCC19606 (12.5% MH pH 7.4) is 16 µg/mL (≈ 6.69 µM). For the same compound, the “MIC A. baumannii ATCC19606” value against A. baumannii ATCC19606 (full MH pH 7.4) is more than 64 µg/mL. In the data set on E. coli W3110, the “MIC E. coli, 12.5% MHB” value worked out at 4 µg/mL (≈ 1.67 µM) and the “MIC E. coli, Full MHB” value was found to be 32 µg/mL (≈ 13.4 µM). The “MIC E. coli W3110” value with E. coli W3110 (12.5% MH pH 7.4) is 4 µg/mL (≈ 1.67 µM). Besides, in the data set with E. coli W3110 (full MH pH 7.4), the “MIC E. coli W3110” value amounted to 32 µg/mL (≈ 13.4 µM). In the data set with K. pneumoniae NCTC 418, the “MIC K. pneumoniae, 12.5% MHB” value was more than 16 µg/mL and the “MIC K. pneumoniae, Full MHB” value was more than 64 µg/mL. In addition, the “MIC K. pneumoniae NCTC418” value with K. pneumoniae NCTC 418 (12.5% MH pH 7.4) is more than 16 µg/mL. Besides, the “MIC K. pneumoniae NCTC418” value against K. pneumoniae NCTC 418 (full MH pH 7.4) is more than 64 µg/mL. Moreover, in the data set with P. aeruginosa PAO1, the “MIC P. aeruginosa, 12.5% MHB” value is more than 16 µg/mL and the “MIC P. aeruginosa, Full MHB” value is more than 64 µg/mL. For the same compound, in the data set on P. aeruginosa PAO1 (12.5% MH pH 7.4), the “MIC P. aeruginosa PAO1” value was more than 16 µg/mL. The “MIC P. aeruginosa PAO1” value in the data set on P. aeruginosa PAO1 (full MH pH 7.4) was more than 64 µg/mL. For the same compound, in the data set on S. aureus COL (MRSA), the “MIC S. aureus, 12.5% MHB” value is recorded as >64 / 64 μg/mL and the “MIC S. aureus, Full MHB” value is >64 / 64 μg/mL. Also, the “MIC S. aureus COL (MRSA)” value against S. aureus COL (MRSA) (12.5% MH pH 7.4) is 64 µg/mL (≈ 26.8 µM). In addition, in the data set on S. aureus COL (MRSA) (full MH pH 7.4), the “MIC S. aureus COL (MRSA)” value was more than 64 µg/mL. Besides, in the data set with human red blood cells, the “Haemolysis on hRBC, MHC” value is more than 1000 µg/mL and the “MHC human red blood cells” value was more than 1000 µg/mL.
